According to patent US7625713B2, “Process for identifying a ligand that binds to the NEP binding site for the SMR1 pentapeptide” (Institut Pasteur, priority 2000, dated 2009):
Where a SMILES comes first, the peptide text is derived from it.

Biological target: T1, NEP (Rattus norvegicus, UniProt P07861)
T1 construct: incubations of membrane and fresh tissue slice preparations from nervous tissues; from tissue; host or cells: dorsal spinal cord of male Wistar rats (fresh slices or 100 000 x g membrane fraction)
T1 sequence (P07861 1-750): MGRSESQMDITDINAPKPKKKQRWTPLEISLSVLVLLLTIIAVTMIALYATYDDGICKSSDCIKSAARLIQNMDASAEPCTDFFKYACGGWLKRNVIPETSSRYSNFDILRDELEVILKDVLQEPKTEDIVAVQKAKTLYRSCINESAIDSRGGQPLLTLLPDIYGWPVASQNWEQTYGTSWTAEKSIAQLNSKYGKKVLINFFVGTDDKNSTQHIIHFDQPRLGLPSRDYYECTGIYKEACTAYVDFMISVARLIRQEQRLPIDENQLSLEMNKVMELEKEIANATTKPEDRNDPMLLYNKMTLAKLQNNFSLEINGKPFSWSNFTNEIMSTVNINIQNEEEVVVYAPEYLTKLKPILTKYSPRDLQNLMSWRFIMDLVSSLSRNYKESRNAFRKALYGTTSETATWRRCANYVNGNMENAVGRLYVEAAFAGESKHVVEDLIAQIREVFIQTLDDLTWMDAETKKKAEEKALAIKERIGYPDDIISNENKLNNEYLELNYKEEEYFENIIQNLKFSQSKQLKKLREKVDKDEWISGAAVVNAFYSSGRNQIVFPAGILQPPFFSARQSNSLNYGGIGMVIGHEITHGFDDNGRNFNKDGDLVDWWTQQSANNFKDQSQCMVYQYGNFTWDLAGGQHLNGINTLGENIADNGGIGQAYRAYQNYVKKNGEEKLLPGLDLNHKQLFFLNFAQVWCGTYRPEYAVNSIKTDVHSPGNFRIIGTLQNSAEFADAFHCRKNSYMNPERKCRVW
Assay: Met-enkephalin hydrolysis by rat spinal cord slices and membrane preparations, RP-HPLC analysis
Type: biochemical
Conditions: 10 μM combined with the inhibitors of CPB and DPPIV (10 μM), spinal cord slices, 20 min at 25° C.
Protocol: FIG. 2-B: […] Retention time) recovered after 20 min. incubation at 25° C. with 1 mg fresh tissue slices in a 1 ml final volume of KRBG buffer. The organs are rapidly removed, dissected on ice, freed of nerve fibers and of adipose tissues and then washed in cold oxygenated glucose- and bicarbonate-containing Krebs Ringer (KRBG) solution, whose composition is the following: 120 mM NaCl-5 mM KCl-1.2 mM KH2PO4-27.5 mM NaHCO3-2.6 mM CaCl2-0.67 mM MgSO4-5.9 mM glucose. The slices of tissues are prepared either manually with the aid of a scalpel (1-2 mm thick), or mechanically with the aid of a “Tissue Chopper” (1 mm thick). Slices are then dispersed into reaction tubes where they are subjected to three successive washes in ice-cold oxygenated KRBG. […] The organs dissected out and washed in ice-cold KRBG are homogenized at 4° C. in 10 volumes (vol./wt.) of 50 mM Tris/HCl buffered at pH 7.2, using a Teflon-glass homogenizer (3×5 sec.). […] The metabolism rate of the NEP-sensitive peptides was measured using the both NEP substrates involved in the signaling of the nociceptive response: the neuropeptides Met-enkephalin and Substance P. […] Their identification and relative quantification (peak height) are checked by continuously monitoring the UV absorbance at 254 nm of column outflow. […]

SMILES: N=C(N)NCCC[C@H](NC(=O)[C@@H]1CCCN1C(=O)[C@H](CC(N)=O)NC(=O)[C@H](Cc1c[nH]cn1)NC(=O)[C@@H](N)CCC(N)=O)C(=O)O [sialorphin, Gln-His-Asn-Pro-Arg] (H-QHNPR-OH; N-terminus and C-terminus assumed)
- inhibition of Met-enkephalinase activity (Met-enkephalin degradation): 80%
